Data set [1] has as its system monkey kidney epithelial cells of the BSC-1 line. The data set can be described thus: Growth-promoting (mitogenic) activity: number of cells in BSC-1 cultures counted four days after addition. It is filed as cell-based, African green monkey.
In a further data set the test system is 3T3 fibroblasts. In words: Growth of 3T3 fibroblasts. In kind it is cell-based, murine.
A short description of data set [2]: Stability of growth-promoting activity to storage, enzyme, chemicals, heat and solvents. In kind it is physicochemical. From the text: For the assay, cells were detached from the dish with a solution of trypsin and an aliquot was counted in a hemocytometer. […] Thus WGF stimulated cell proliferation by 30% in this assay. When high-density, quiescent cultures (3×10^6 cells/55-mm dish) were used to assay mitogenic activity by measuring [^3H]thymidine incorporation into DNA, WGF enhanced DNA synthesis about 60%. To prepare WGF, cells can be scrape-wounded every other day, yet maximal activity will be released into the conditioned medium. WGF is mitogenic for both sparse and confluent cultures of BSC-1 cells, and is stable upon storage at 4° C. to −40° C. for many weeks.
WGF activity was also stable in 0.1% trifluoroacetic acid (TFA) (J. T. Baker, HPLC grade) and isopropanol.

The next data set has as its system BSC-1 cells. The data set can be described thus: Appearance or release of WGF growth-promoting activity from BSC-1 cells (scrape wounding, heparinase). It is filed as cell-based, African green monkey. To be noted: confluent monolayer treated with the enzyme. The method, then: None of these agents inhibited cell growth when added to cells of nonwounded cultures. When added to the medium after the appearance of WGF mitogenic activity, neither PMSF nor aprotinin appeared to inhibit the increment in cell proliferation.
Confluent monolayer cultures were mechanically scraped using a 200 μL pipet tip (Continental Laboratory Products, San Diego, Calif.). […] (This process of scraping the cells has been termed “wounding” and has been used for many years as a model system to study repair of corneal abrasions of the eye. In effect, pressure is applied to cells sufficient to disrupt intercellular adhesion). To determine whether kidney epithelial cells released an autocrine growth factor into the medium after wounding, conditioned culture medium was removed from the culture dish after scrape-wounding a monolayer of BSC-1 cells. An aliquot was assayed for any growth-promoting activity on a nonwounded “detector” culture (1.2×10^6 cells per […]).
Treatment of a confluent monolayer of BSC-1 cells with the enzyme heparinase I (Sigma), but not heparinase III (Sigma), releases WGF mitogenic activity from cells into the culture media. However, this seems to deplete WGF, at least temporarily. When cells are first treated with heparinase I, rinsed, the media aspirated, and the monolayer is then scrape-wounded, no growth-promoting activity is detected in the conditioned media.

Four molecules from patent publication US7550438B2, “Methods for production of growth-promoting proteins and peptides for kidney epithelial cells” (The University of Chicago, priority 1997, dated 2009) can be followed below.

As for AQPYPQGNHEA, in data set [1] (maximal concentrations, 11-mer with wound conditioned buffer), the “combined mitogenic effect with WGF (additivity)” value is on record as “not additive”. Further, in data set [1] (peptide 0.5 to 20 μg/ml, four days), the “mitogenic activity on BSC-1 cells (in words)” value is listed as “to the same extent as did purified WGF protein”. Further, in data set [1] (peptide alone, BSC-1 cells, 4 days in culture, read-out: Growth-Stimulation K½), the EC50 came out at 260 nM. The “mitogenic activity on 3T3 fibroblasts” value in the data set on 3T3 fibroblasts was “did not stimulate growth”.
Regarding “basic fibroblast growth factor [basic FGF, reference compound]”, the “concentration equivalent in mitogenic potency to partially-purified WGF” value in data set [1] stood at 0.02 ng/mL. Moreover, the “stimulation of growth (increase in cell number compared to control at four days)” value in data set [1] (agent alone at maximal mitogenic concentration (14-Ser 0.5 μg/ml; EGF, IGF-I 50 ng/ml; acidic FGF 100 pg/ml; basic FGF 1,000 pg/ml; vasopressin 75 pg/ml; K 10.4 mM; Na 180 mM)) is listed as 18%. In addition, the “stimulation of growth in the presence of the 14-Ser peptide” value in data set [1] (mitogenic signal at maximal concentration plus 14-Ser peptide 0.5 μg/ml, four days) is listed as 41%. Also, the “inhibition of mitogenic activity by 55% acetonitrile/0.1% (TFA)” value in data set [2] amounted to 90%.

B1: heparinase III: enzyme heparinase III (Sigma) (protein, UniProt Q59289 25-659, looked up)
Heparin-sulfate lyase: QSSSITRKDFDHINLEYSGLEKVNKAVAAGNYDDAAKALLAYYREKSKAREPDFSNAEKPADIRQPIDKVTREMADKALVHQFQPHKGYGYFDYGKDINWQMWPVKDNEVRWQLHRVKWWQAMALVYHATGDEKYAREWVYQYSDWARKNPLGLSQDNDKFVWRPLEVSDRVQSLPPTFSLFVNSPAFTPAFLMEFLNSYHQQADYLSTHYAEQGNHRLFEAQRNLFAGVSFPEFKDSPRWRQTGISVLNTEIKKQVYADGMQFELSPIYHVAAIDIFLKAYGSAKRVNLEKEFPQSYVQTVENMIMALISISLPDYNTPMFGDSWITDKNFRMAQFASWARVFPANQAIKYFATDGKQGKAPNFLSKALSNAGFYTFRSGWDKNATVMVLKASPPGEFHAQPDNGTFELFIKGRNFTPDAGVFVYSGDEAIMKLRNWYRQTRIHSTLTLDNQNMVITKARQNKWETGNNLDVLTYTNPSYPNLDHQRSVLFINKKYFLVIDRAIGEATGNLGVHWQLKEDSNPVFDKTKNRVYTTYRDGNNLMIQSLNADRTSLNEEEGKVSYVYNKELKRPAFVFEKPKKNAGTQNFVSIVYPYDGQKAPEISIRENKGNDFEKGKLNLTLTINGKQQLVLVP
As for B1, the “release of WGF mitogenic activity from cells into the culture media” value in the data set on BSC-1 cells is “not”.

B2: heparinase I: enzyme heparinase I (Sigma) (protein, UniProt Q05819 22-384, looked up)
Heparin lyase I: QQKKSGNIPYRVNVQADSAKQKAIIDNKWVAVGINKPYALQYDDKLRFNGKPSYRFELKAEDNSLEGYAAGETKGRTELSYSYATTNDFKKFPPSVYQNAQKLKTVYHYGKGICEQGSSRSYTFSVYIPSSFPDNATTIFAQWHGAPSRTLVATPEGEIKTLSIEEFLALYDRMIFKKNIAHDKVEKKDKDGKITYVAGKPNGWKVEQGGYPTLAFGFSKGYFYIKANSDRQWLTDKADRNNANPENSEVMKPYSSEYKTSTIAYKMPFAQFPKDCWITFDVAIDWTKYGKEANTILKPGKLDVMMTYTKNKKPQKAHIVNQQEILIGRNDDDGYYFKFGIYRVGNSTVPVTYNLSGYSETAR
Take B2: the “release of WGF mitogenic activity from cells into the culture media” value in the data set on BSC-1 cells is recorded as “releases”.
